US12275731B2, “Azaindole inhibitors of wild-type and mutant forms of LRRK2” (DANA-FARBER CANCER INSTITUTE, INC., priority 2018, dated 2025)

Columns and labels:
Test in all cases: KinomeScan profiling
Assay type in all cases: binding
[1] = target: T1, TNK1 (Homo sapiens, UniProt Q13470); settings: TNK1, 1 μM; read-out: % control
T1 sequence (Q13470 1-666): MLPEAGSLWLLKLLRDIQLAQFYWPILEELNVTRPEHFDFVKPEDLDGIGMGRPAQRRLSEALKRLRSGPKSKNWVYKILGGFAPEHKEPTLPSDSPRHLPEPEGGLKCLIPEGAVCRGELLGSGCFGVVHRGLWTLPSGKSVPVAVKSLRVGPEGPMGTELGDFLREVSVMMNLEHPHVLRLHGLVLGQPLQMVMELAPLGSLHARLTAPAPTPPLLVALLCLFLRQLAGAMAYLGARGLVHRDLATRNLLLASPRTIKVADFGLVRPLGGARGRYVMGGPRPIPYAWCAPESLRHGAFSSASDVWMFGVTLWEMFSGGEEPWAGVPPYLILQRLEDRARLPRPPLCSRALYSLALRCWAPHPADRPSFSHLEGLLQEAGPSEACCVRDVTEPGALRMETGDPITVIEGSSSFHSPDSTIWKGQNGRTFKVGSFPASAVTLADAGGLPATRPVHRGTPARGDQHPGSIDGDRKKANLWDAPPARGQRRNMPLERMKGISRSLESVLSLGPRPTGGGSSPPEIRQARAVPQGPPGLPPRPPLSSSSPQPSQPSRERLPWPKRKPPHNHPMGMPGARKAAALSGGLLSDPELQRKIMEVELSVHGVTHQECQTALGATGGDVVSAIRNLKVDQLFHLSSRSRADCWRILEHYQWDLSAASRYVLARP
Procedure, shortened: (§1)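 Single-point competition binding screen: 1 μM, DMSO, 468 kinases. Results reported as % control from RLU, normalised to DMSO and positive-control wells. Activity threshold: <35% control.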

[2] = target: HIPK1 (Homo sapiens, UniProt Q86Z02); settings: HIPK1, 1 μM; read-out: % control
HIPK1, sequence (Q86Z02 whole entry): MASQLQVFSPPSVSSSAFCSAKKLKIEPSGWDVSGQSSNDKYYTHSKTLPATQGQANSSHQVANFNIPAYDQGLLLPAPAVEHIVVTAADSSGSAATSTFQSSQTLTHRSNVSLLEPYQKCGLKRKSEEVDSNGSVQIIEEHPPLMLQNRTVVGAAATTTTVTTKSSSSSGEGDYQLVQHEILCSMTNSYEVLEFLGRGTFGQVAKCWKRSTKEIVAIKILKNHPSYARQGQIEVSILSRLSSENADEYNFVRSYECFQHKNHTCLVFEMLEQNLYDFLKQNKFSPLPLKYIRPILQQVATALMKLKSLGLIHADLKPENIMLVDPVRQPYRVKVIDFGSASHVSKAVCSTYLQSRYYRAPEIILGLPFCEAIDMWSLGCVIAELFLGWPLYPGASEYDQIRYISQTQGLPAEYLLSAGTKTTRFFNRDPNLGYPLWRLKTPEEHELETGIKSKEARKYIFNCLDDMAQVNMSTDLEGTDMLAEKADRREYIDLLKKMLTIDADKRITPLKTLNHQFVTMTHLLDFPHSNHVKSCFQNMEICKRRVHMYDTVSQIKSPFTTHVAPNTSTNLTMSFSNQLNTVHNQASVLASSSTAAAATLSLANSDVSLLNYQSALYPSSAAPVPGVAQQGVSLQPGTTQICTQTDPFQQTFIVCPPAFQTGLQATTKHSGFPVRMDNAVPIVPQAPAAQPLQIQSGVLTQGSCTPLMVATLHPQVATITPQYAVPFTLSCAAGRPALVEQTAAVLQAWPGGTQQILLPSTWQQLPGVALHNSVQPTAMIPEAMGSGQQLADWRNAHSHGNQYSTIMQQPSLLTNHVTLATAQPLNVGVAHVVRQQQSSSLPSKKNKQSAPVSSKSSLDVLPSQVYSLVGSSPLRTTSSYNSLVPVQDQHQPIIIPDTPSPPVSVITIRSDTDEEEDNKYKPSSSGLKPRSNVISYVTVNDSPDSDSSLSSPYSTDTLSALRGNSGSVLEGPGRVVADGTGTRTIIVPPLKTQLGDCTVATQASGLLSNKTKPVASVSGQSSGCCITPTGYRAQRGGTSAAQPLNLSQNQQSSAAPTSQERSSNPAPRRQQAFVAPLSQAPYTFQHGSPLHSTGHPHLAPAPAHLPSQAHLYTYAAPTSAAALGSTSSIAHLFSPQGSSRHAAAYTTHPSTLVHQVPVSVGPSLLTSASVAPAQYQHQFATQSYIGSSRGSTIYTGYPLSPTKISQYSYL
Procedure, shortened: as §1

[3] = target: T2, DYRK2 (Homo sapiens, UniProt Q92630); settings: DYRK2, 1 μM; read-out: % control
T2 sequence (Q92630 1-601): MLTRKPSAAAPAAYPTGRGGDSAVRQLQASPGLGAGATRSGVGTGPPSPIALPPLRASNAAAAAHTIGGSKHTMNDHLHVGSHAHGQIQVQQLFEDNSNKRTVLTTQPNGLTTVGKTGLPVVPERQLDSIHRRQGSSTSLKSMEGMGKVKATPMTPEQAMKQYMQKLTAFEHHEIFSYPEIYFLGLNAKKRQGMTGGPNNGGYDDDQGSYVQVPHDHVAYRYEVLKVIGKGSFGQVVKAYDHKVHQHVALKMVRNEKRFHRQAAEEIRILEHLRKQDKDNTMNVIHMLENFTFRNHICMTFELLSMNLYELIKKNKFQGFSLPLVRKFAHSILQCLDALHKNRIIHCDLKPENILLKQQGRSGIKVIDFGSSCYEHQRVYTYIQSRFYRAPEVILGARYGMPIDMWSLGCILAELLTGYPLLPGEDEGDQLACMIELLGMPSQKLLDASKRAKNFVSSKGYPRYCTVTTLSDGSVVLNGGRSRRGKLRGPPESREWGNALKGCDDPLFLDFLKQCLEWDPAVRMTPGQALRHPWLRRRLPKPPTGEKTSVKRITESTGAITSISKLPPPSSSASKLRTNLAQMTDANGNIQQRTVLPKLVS
Procedure, shortened: as §1

[4] = target: T3, MARK4 (Homo sapiens, UniProt Q96L34); settings: MARK4, 1 μM; read-out: % control
T3 sequence (Q96L34 1-752): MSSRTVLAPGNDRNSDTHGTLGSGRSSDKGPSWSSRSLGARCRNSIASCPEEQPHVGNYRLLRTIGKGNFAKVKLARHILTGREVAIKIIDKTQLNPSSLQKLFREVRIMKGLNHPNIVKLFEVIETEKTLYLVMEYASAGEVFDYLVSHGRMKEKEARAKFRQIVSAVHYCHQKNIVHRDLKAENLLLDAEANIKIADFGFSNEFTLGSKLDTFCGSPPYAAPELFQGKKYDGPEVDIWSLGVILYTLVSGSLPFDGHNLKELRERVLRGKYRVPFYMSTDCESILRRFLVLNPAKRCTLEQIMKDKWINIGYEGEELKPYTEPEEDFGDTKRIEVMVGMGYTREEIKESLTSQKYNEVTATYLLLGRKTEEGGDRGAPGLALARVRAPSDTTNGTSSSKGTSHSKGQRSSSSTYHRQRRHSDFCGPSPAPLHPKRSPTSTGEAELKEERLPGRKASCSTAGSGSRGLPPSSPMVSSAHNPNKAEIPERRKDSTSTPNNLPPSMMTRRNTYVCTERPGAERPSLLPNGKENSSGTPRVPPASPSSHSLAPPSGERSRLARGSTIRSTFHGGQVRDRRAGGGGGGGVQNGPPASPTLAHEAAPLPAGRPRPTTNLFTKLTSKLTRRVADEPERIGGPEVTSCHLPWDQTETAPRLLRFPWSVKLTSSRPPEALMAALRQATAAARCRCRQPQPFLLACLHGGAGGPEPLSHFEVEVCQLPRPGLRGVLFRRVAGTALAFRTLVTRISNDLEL
Procedure, shortened: as §1

[5] = target: MKNK2 (Homo sapiens, UniProt Q9HBH9); settings: MKNK2, 1 μM; read-out: % control
MKNK2, sequence (Q9HBH9 whole entry): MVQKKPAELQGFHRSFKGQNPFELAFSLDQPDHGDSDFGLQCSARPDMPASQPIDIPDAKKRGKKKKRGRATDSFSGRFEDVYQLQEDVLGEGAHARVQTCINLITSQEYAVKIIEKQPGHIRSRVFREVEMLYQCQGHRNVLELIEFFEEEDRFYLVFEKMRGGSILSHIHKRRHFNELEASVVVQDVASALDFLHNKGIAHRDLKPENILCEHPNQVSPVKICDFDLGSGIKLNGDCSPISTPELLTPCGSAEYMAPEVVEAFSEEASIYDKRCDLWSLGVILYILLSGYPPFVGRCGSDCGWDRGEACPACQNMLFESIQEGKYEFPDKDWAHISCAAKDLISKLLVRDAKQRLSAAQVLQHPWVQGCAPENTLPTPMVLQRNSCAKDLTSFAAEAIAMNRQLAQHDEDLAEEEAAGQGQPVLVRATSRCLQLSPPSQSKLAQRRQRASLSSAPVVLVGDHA
Procedure, shortened: as §1

Structure (SMILES): CNc1c(-c2cnn([C@H]3CCN(C(C)=O)C[C@@H]3F)c2)cnc2[nH]cc(Cl)c12 [Compound 77, 1-((3S,4S)-4-(4-(3-chloro-4-(methylamino)-1H-pyrrolo[2,3-b]pyridin-5-yl)-1H-pyrazol-1-yl)-3-fluoropiperidin-1-yl)ethan-1-one]
- remaining binding at 1 µM [1]: 80%
- remaining binding at 1 µM [2]: 70%
- remaining binding at 1 µM [3]: 49%
- remaining binding at 1 µM [4]: 36%
- remaining binding at 1 µM [5]: 56%

Structure (SMILES): CNc1c(-c2ccc(C(=O)N3CCC(N4CCOCC4)CC3)cc2)cnc2[nH]cc(Cl)c12 [Compound 96, (4-(3-chloro-4-(methylamino)-1H-pyrrolo[2,3-b]pyridin-5-yl)phenyl)(4-morpholinopiperidin-1-yl)methanone]
- remaining binding at 1 µM [1]: 83%
- remaining binding at 1 µM [2]: 68%
- remaining binding at 1 µM [3]: 12%
- remaining binding at 1 µM [4]: 38%
- remaining binding at 1 µM [5]: 22%

Structure (SMILES): O=C(c1ccc(-c2cnc3[nH]cc(Cl)c3c2NC2CCCC2)cc1)N1CCC(N2CCOCC2)CC1 [Compound 101, (4-(3-chloro-4-(cyclopentylamino)-1H-pyrrolo[2,3-b]pyridin-5-yl)phenyl)(4-morpholinopiperidin-1-yl)methanone]
- remaining binding at 1 µM [1]: 50%
- remaining binding at 1 µM [2]: 92%
- remaining binding at 1 µM [3]: 100%
- remaining binding at 1 µM [4]: 82%
- remaining binding at 1 µM [5]: 94%
